Entries after “also recorded” stand apart in the source; their conditions may differ.

In one test the target is T1, Rorγt (Mus musculus, UniProt P51450).
T1 sequence (P51450 1-495 isoform P51450-2): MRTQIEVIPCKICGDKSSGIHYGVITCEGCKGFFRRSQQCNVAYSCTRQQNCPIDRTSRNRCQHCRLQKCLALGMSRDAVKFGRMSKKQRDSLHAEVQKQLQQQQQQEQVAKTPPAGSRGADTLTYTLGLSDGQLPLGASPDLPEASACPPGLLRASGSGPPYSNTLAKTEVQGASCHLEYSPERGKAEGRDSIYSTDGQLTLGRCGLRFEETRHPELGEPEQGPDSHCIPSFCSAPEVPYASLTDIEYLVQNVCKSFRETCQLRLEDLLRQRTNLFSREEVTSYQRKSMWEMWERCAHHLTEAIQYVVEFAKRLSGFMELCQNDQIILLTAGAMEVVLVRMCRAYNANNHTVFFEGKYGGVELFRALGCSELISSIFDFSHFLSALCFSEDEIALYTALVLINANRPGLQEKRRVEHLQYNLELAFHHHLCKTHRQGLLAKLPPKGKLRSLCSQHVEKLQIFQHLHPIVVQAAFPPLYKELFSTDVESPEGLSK
In words: Dual luciferase reporter assay in EL4 cells stably transfected with Rorγt vector. The class given is cell-based. Also noted: expressed in transfected cells; host or cells: EL4 cells, stably transfected. The conditions noted are these: EL4 cells with Rorγt and CD5L vector; 5, 0.5, 0.05 μM titration. How it is done: Lipidome analysis of Th17 cells. (A) WT and CD5L^−/− naïve T cells were differentiated as in FIG. 46B in the presence of cytokines as indicated. Cells and supernatant were harvested at 96 hours and subjected to MS/LC. Three independent mouse experiments were performed. […] (B) Expression of representative metabolites including a cholesterol ester and a PUFA-containing TAG species. FIG. 48 C, D, E, F-J show as follows: (C) Metabolomic analysis of independent mouse experiments where T cells were differentiated under various cytokine conditions as indicated and harvested at 48 h and 96 h. (D,E) Rorγt ChIP from Th17 cells differentiated as described in A. under various conditions as indicated. F-K. Dual luciferase reporter assay was performed in EL4 cells stably transfected with a control vector or Rorγt vector. (F, G) CD5L retroviral vector was cotransfected in F and G at 0, 25, 50 and 100 ng/well. […] All ChIP and luciferase assay are representative of at least 3 independent experiments.

Test [1] concerns Th17 cells. In words: FACS of IL-17 and IL-23R.GFP in Th17 cells treated with free fatty acids. The class given is cell-based, mouse. Particulars: 10 uM arachidonic acid or 20 uM palmitic acid, 48 h, FACS. How it is done: (§1) (A) Naïve T cells were sorted from either WT or IL-23RGFP reporter mice, activated with plate-bound anti-CD3/anti-CD28 and differentiated with TGFβ1+IL-6 for 48 hours. […] (B) Cells from WT and Rorc^−/− mice were sorted, differentiated and treated with FFA as in A. Cells were harvested for RNA purification and qPCR. (C) Naïve WT and CD5L^−/− T cells were differentiated as in A. Cells were then lifted, washed and replated in fresh media with no addition of cytokines and in the presence of control or 5 uM of arachidonic acid (PUFA). Cytokine profile of T cells were measured after PMA/ionomycin restimulation. […] Another 48 hours later, cells were harvested for nanostring analysis (D) or qPCR (E).

The subject of test [2] is Th17 cells. In words: qPCR and Nanostring signature analysis of Th17 cells treated with free fatty acids. In kind it is cell-based, mouse. How it is done:
as §1
Next, the contribution of lipid saturation to Th17 cell pathogenicity was studied.
In general terms: Real-time PCR tracks product formation cycle by cycle.

For test [3], the target named is T2, PROCR (Mus musculus, UniProt Q64695).
T2 construct: endogenous in cells; host or cells: primary naïve CD4+ T cells polarised to Th17 (TGF-β1 + IL-6)
T2 sequence (Q64695 18-242): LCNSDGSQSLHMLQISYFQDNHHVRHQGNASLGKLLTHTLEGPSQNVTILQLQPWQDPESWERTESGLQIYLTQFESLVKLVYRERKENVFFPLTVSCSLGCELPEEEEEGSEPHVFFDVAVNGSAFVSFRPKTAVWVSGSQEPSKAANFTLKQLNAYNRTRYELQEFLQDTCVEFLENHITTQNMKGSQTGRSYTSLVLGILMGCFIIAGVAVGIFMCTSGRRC
In words: qRT-PCR of pathogenic/non-pathogenic signature genes in Th17 cells differentiated in the presence of activated protein C. In kind it is cell-based. From the text:
FIG. 23A depicts quantitative RT-PCR analysis of mRNA expression of several pathogenic signature genes in Th17 cells differentiated with TGFβ1 and IL-6 in the presence of activated protein C (aPC) for 3 days in vitro. FIG. 23B depicts quantitative RT-PCR analysis of mRNA expression of several pathogenic signature genes in naïve CD4^+ T cells polarized under Th17 conditions, transduced with either GFP control retrovirus (Control RV) or PROCR-expressing retrovirus (PROCR RV) for 3 days. FIG. 23C depicts quantitative RT-PCR analysis of mRNA expression of several pathogenic signature genes in Th17 cells from EPCR δ/δ mice and control mice differentiated with TGFβ1 and IL-6 for 3 days in vitro.
FIGS. 32A-32D are a series of graphs depicting how PROCR and PD-1 expression affects Th17 pathogenicity. FIG. 32A depicts signature genes of pathogenic and non-pathogenic Th17 cells. Naïve CD4+ T cells were differentiated into non-pathogenic (TGFβ1+IL-6) or pathogenic (TGFβ3+IL-6 or IL-β1+IL-6) Th17 cells and PROCR expression was determined by quantitative PCR. FIG. 32B depicts how naïve WT or PROCRd/d CD4+ T cells were stimulated under Th17 polarizing conditions (TGFβ1+IL-6) in the presence or absence of aPC. Quantitative expression of three pathogenic signature genes was determined on day 3. […] Mice were monitored for EAE. […] Mice were monitored for EAE.

The target of test [4] is T2, PROCR. In words: Intracellular IFN-γ/IL-17 staining and IL-17 ELISA of Th17 cells differentiated with activated protein C. In kind it is cell-based. The conditions noted are these: aPC 300 nM; flow cytometry day 3, ELISA day 3 and 5. How it is done: FIG. 20A depicts how naïve CD4+ T cells were differentiated into Th17 cells by anti-CD3/anti-CD28 stimulation in the presence of activated protein C (aPC, 300 nM), the ligand of PROCR. On day 3, cells were stimulated with PMA and Ionomycin for 4 hr, stained intracellularly for IFN-γ and IL-17 and analyzed by flow cytometry. FIG. 20B depicts IL-17 production from Th17 cells (TGF-β+IL-6) differentiated with or without activated protein C (aPC and Ctl, respectively) was assessed by ELISA on Day 3 and 5. FIG. 20C depicts how naïve CD4+ T cells were polarized under Th17 conditions (TGF-β+IL-6), transduced with either GFP control retrovirus (Ctl RV) or PROCR-expressing retrovirus (PROCR RV). Intracellular expression of IFN-γ and IL-17 in GFP+ cells were assessed by flow cytometry. FIG. 20D depicts how naïve CD4+ T cells from EPCR δ/δ mice and control mice were polarized under Th17 conditions with TGF-β1 and IL-6. Intracellular expression of IFN-γ and IL-17 were assessed by flow cytometry.
On the technique in general: In an ELISA, binding on a coated surface is turned into a signal by an enzyme label.

Another test relates to EAE. In words: EAE (experimental autoimmune encephalomyelitis) clinical scoring. In kind it is in vivo, mouse. Particulars: schematic of PROCR regulation (FIG. 26D). The source says:
FIGS. 26A-26D are a series of graphs and illustrations depicting that PROCR deficiency exacerbates EAE severity. FIG. 26A depicts frequency of CD4+ T cells expressing IL-17 and PROCR isolated from EAE mice 21d after immunization with MOG35-55. FIG. 26B depicts how EAE was induced by adoptive transfer of MOG35-55-specific 2D2 cells transduced with a control retrovirus (Ctl_GFP) or a PROCR-expression retrovirus (PROCR_RV) and differentiated into Th17 cells. Mean clinical scores and summaries for each group are shown. Results are representative of one of two experiments. FIG. 26C depicts how Rag1−/− mice were reconstituted with either PROCR-deficient (EPCR δ/δ→Rag1−/−) or WT T cells (WT→Rag1−/−) and immunized with MOG35-55 to induce EAE. The mean clinical score of each group is shown. Results are representative of one of two experiments. FIG. 26D depicts a schematic representation of PROCR regulation. Rorγt, IRF4, and STAT3 induce PROCR expression.
CyTOF and flow cytometry: Active induction of EAE and disease analysis: For active induction of EAE, mice were immunized by subcutaneous injection of 100 μg MOG (35-55) ([…]) (SEQ ID NO: 1395) in CFA, then received 200 ng pertussis toxin intraperitoneally (List Biological Laboratory) on days 0 and 2. […]

As to `CC(CO)CCC[C@@H](C)[C@H]1CC[C@H]2[C@@H]3C(O)C=C4C[C@@H](O)CC[C@]4(C)[C@H]3CC[C@]12C` (stereo partly shown) [7, 27 dihydroxycholesterol, 7, 27-dihydroxycholesterol], at Rorγt, the “Il17 reporter transcription under CD5L-driven suppression” value is given as “rescued the CD5L-driven suppression”.
As for `CCCCCCCCCCCCCCCC(=O)O` [SFA, palmitic acid], the “percentage of IL-23R.GFP+ CD4 T cells” value in the test with Th17 cells [1] (IL-23RGFP reporter Th17 (TGFβ1+IL-6) expanded with IL-23) is “increased the expression of both IL-17 and IL-23R expression, but this effect was not significant”. Further, the “percentage of IL-17+ CD4 T cells” value with Th17 cells [1] (WT Th17 (TGFβ1+IL-6) expanded with IL-23) is “increased the expression of both IL-17 and IL-23R expression, but this effect was not significant”. For the same molecule, the “316 gene signature of Th17 cell differentiation and function” value with Th17 cells [2] (WT Th17 cells (TGFβ1+IL-6), 25 uM palmitic acid, Nanostring nCounter) is recorded as “more similar to CD5L^−/− Th17 cells”. Moreover, in the test on Th17 cells [2] (qPCR), the Il22 expression result is listed as “increased”; the “expression of key pathogenicity signature genes Il10, Il23r, Ccl5, Csf2 and Lag3” value is “reciprocally regulated”.

B1: activated protein C: the ligand of PROCR (protein, UniProt P04070 200-461, looked up)
Vitamin K-dependent protein C …: DTEDQEDQVDPRLIDGKMTRRGDSPWQVVLLDSKKKLACGAVLIHPSWVLTAAHCMDESKKLLVRLGEYDLRRWEKWELDLDIKEVFVHPNYSKSTTDNDIALLHLAQPATLSQTIVPICLPDSGLAERELNQAGQETLVTGWGYHSSREKEAKRNRTFVLNFIKIPVVPHNECSEVMSNMVSENMLCAGILGDRQDACEGDSGGPMVASFHGTWFLVGLVSWGEGCGLLHNYGVYTKVSRYLDWIHGHIRDKEAPQKSWAP
modifications: Vitamin K-dependent protein C heavy chain activated two-chain form
notes: the ligand of PROCR
On to B1, for which the “mRNA expression of pathogenic signature genes in Th17 cells” value with PROCR [3] (Th17 cells differentiated with TGFβ1 and IL-6 in the presence of aPC for 3 days, quantitative RT-PCR) was “impairs some pathogenic signature genes; also recorded: downregulation of the pathogenic signature genes IL-3, CXCL3, CCL4 and Pdp; also recorded: decreased the expression of some of the genes”. Moreover, in the test with PROCR [3] (Th17 polarizing conditions (TGFβ1+IL-6) with aPC, day 3), the “expression of non-pathogenic signature genes in Th17 cells” value is reported as “induces some non-pathogenic signature genes”. Besides, the “cytokine production (IFN-γ, IL-17) from Th17 cells” value with PROCR [4] was “not essential for cytokine production”. Besides, the “pathogenicity in EAE” value in the test on EAE is on record as “reduced pathogenicity”.

For the origin of these results see patent publication US11209440B2, “T cell balance gene expression, compositions of matters and methods of use thereof” (THE BROAD INSTITUTE, INC., priority 2014, dated 2021).
